PubChem BioAssay (NCI)
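Following 48 hours of exposure in 96-well plates, responses at five concentrations were used to interpolate endpoints linearly. At the GI50, growth is halved. TGI: total growth inhibition.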

What was measured:
Test in all cases: inhibition of tumour cell growth, NCI panel, 48 h
NCI-H23 lung = test system: NCI-H23 lung
NCI-H460 lung = test system: NCI-H460 lung
NCI-H522 lung = test system: NCI-H522 lung
NCI/ADR-RES ovarian = test system: NCI/ADR-RES ovarian
OVCAR-4 ovarian = test system: OVCAR-4 ovarian
OVCAR-5 ovarian = test system: OVCAR-5 ovarian
OVCAR-8 ovarian = test system: OVCAR-8 ovarian
PC-3 prostate = test system: PC-3 prostate
RPMI-8226 leukemia = test system: RPMI-8226 leukemia
SF-268 CNS = test system: SF-268 CNS
SF-295 CNS = test system: SF-295 CNS
SK-MEL-28 melanoma = test system: SK-MEL-28 melanoma
SK-MEL-5 melanoma = test system: SK-MEL-5 melanoma
SK-OV-3 ovarian = test system: SK-OV-3 ovarian
SN12C renal = test system: SN12C renal
SNB-19 CNS = test system: SNB-19 CNS
SNB-75 CNS = test system: SNB-75 CNS
SR leukemia = test system: SR leukemia
SW-620 colon = test system: SW-620 colon
TK-10 renal = test system: TK-10 renal
U251 CNS = test system: U251 CNS
UACC-257 melanoma = test system: UACC-257 melanoma
UACC-62 melanoma = test system: UACC-62 melanoma
UO-31 renal = test system: UO-31 renal

Compound: COC(=O)[C@@H](C)C[C@H](Cc1ccc2ccccc2c1)NC(=O)c1csc([C@@H](C[C@H](C(C)C)N(C)C(=O)[C@@H](NC(=O)[C@H]2CCCCN2C)C(C)C)OC(C)=O)n1
- TGI (NCI-H23 lung): > 25 µM
- GI50 (NCI-H460 lung): 0.0118 µM
- TGI (NCI-H460 lung): > 25 µM
- GI50 (NCI-H522 lung): 0.00561 µM
- TGI (NCI-H522 lung): 6.03 µM
- GI50 (NCI/ADR-RES ovarian): 0.614 µM
- TGI (NCI/ADR-RES ovarian): > 25 µM
- GI50 (OVCAR-4 ovarian): 0.129 µM
- TGI (OVCAR-4 ovarian): > 25 µM
- GI50 (OVCAR-5 ovarian): 0.0629 µM
- TGI (OVCAR-5 ovarian): > 25 µM
- GI50 (OVCAR-8 ovarian): 0.0445 µM
- TGI (OVCAR-8 ovarian): > 25 µM
- GI50 (PC-3 prostate): 0.0106 µM
- TGI (PC-3 prostate): 7.77 µM
- GI50 (RPMI-8226 leukemia): 0.00932 µM
- TGI (RPMI-8226 leukemia): 5.99 µM
- GI50 (SF-268 CNS): 0.021 µM
- TGI (SF-268 CNS): > 25 µM
- GI50 (SF-295 CNS): 0.0107 µM
- TGI (SF-295 CNS): > 25 µM
- GI50 (SK-MEL-28 melanoma): 2.7 µM
- TGI (SK-MEL-28 melanoma): 6.6 µM
- GI50 (SK-MEL-5 melanoma): 0.0122 µM
- TGI (SK-MEL-5 melanoma): 1.42 µM
- GI50 (SK-OV-3 ovarian): 0.048 µM
- TGI (SK-OV-3 ovarian): > 25 µM
- GI50 (SN12C renal): 0.047 µM
- TGI (SN12C renal): > 25 µM
- GI50 (SNB-19 CNS): 0.0153 µM
- TGI (SNB-19 CNS): > 25 µM
- GI50 (SNB-75 CNS): 0.00524 µM
- TGI (SNB-75 CNS): > 25 µM
- GI50 (SR leukemia): 0.0025 µM
- TGI (SR leukemia): 3.57 µM
- GI50 (SW-620 colon): 0.0147 µM
- TGI (SW-620 colon): > 25 µM
- GI50 (TK-10 renal): 8.8 µM
- TGI (TK-10 renal): > 25 µM
- GI50 (U251 CNS): 0.0128 µM
- TGI (U251 CNS): 10.7 µM
- GI50 (UACC-257 melanoma): 4.13 µM
- TGI (UACC-257 melanoma): 9.42 µM
- GI50 (UACC-62 melanoma): 0.00995 µM
- TGI (UACC-62 melanoma): 7.78 µM
- GI50 (UO-31 renal): 0.286 µM
- TGI (UO-31 renal): 5.18 µM
